US20220334101A1, “MODULATING EXTRACELLULAR MATRIX MOVEMENT” (Helmholtz Zentrum Muenchen - Deutsches Forschungszentrum …, priority 2019, published 2022)
Counter-ions that a name gives are not always drawn.

Key:
skin-fascia explants = test: Scar-in-a-dish (SCAD) ex vivo skin-fascia explant assay, screening of Prestwick chemical library; type: cell-based, mouse; conditions: molecules of table 1 named as inhibitors of ECM movement
Text: Post born Day 0 (P0) neonates of C57BL/6J wild type mouse were first sacrificed by decapitation. Then dorsal back skin was isolated to make 2 mm full thickness biopsies (0 2 mm, Stiefel) that included the epidermis, dermis and deep subcutaneous fascia layers. The whole skin tissue explant system is termed as scar-in-a-dish (SCAD) assay (Patent Application no. PLA17A13). The SCAD tissue was maintained in DMEM/F12 cell culture medium (Life Technologies) supplemented with 10% FBS (Life Technologies), 1% non-essential amino acid (Thermo Fisher), 1% Glutamax (Thermo Fisher), 1% penicillin and streptomycin (Thermo Fisher) in a 37° C. incubator supplied with […] and 5% CO2. Medium was changed every other day until day 5 when SCADs were collected and fixed for histology analysis. To be noticed, the excised skin was submerged […] in culture media, which confined the scar-prone fibroblasts to the explant and discouraged their adherence to the tissue culture plate.
The PCL provides an additional advantage as all chemicals are of stable physicochemical properties, show a high range of chemical diversity, and are with known bioavailability and safety data in humans. All these information helps to reduce the probability of screening low-quality hits and save the costs of preliminary screening process.
In order to accommodate to medium scale screening approach, the Inventors adapted the SCAD explant system into 96-well plate (Falcon) formats, with each well contained one biopsy. […] Plate and liquid handling were performed using a high-throughput screening platform system composed of a Sciclone G3 Liquid Handler from PerkinElmer (Waltham, Mass., USA). On Day 0 tissues were treated either with the respective compound (1 mM stock solution) dissolved in 100% dimethyl sulfoxide (DMSO, Carl Roth) or DMSO alone. 0.5 μl of compounds/DMSO were transferred with a 96-array head to 200 μl DMEM/F12 medium per well to keep the final DMSO concentrations at […]. Tissues were then incubated (37° C.; 5% CO2) for 72 h prior to a second round of compound treatment, which was performed by exchanging cell culture medium per well and transferring […] of compounds/DMSO into the fresh medium. After an incubation time of another 48 h (37° C.; 5% CO2) the tissues were harvested and fixed for histological processing and imaging.
Briefly, the Inventors excised 2-mm full thickness skin biopsies that included epidermis, dermis, and deep subcutaneous fascia layers from mouse backs (see Methods). Skin-fascia explants were submerged fascia-side up in culture media, to confine scar-prone fibroblasts to the explant and discourage their adherence to the tissue culture plate.
The Prestwick library has selected a diverse array of chemicals with strong physicochemical properties, with known bioavailability and clinical safety data. The library is an ideal place to start screening as it covers all major therapeutic chemical classes such as central nervous system, cardiovascular system, metabolism, and infectious diseases.

liver = test: ECM (matrix) movement into liver wounds after electroporation injury, NHS-FITC matrix labelling; type: in vivo, mouse; conditions: for recruitment / deposition of fluid matrix after local application: filter paper with 100 nM solution on liver surface for 5 minutes, absence of wounds
peritoneum = test: ECM (matrix) movement into peritoneal wounds after laparotomy injury, NHS-FITC matrix labelling; type: in vivo, mouse; conditions: for organ specificity of the effect on matrix currents: livers and peritoneas compared
[1] = inhibitors 10 μM i.p. 2 hours before surgery, organs harvested after 24 h, FITC in wound lysates

## CC(O)(P(=O)(O)O)P(=O)(O)O [Etidronic acid, disodium salt]
skin-fascia explants
  phenotype as inhibitor of ECM movement: anti-fibrotic phenotype

## CC(=O)[C@H]1CC[C@H]2[C@@H]3C[C@H](C)C4=CC(=O)CC[C@]4(C)[C@H]3[C@@H](O)C[C@]12C [Medrysone]
skin-fascia explants
  phenotype as inhibitor of ECM movement: anti-fibrotic phenotype

## O=C(c1ccccc1)c1ccc2n1CCC2C(=O)O (centres unmarked) [Ketorolac tromethamine]
skin-fascia explants
  phenotype as inhibitor of ECM movement: anti-fibrotic phenotype

## N#CCCN [BAPN]
liver; mouse, in vivo, ip
  ECM (matrix) movement, liver: increased
peritoneum; mouse, in vivo, ip
  ECM (matrix) movement, peritoneum: increased

## CCN(CC)CCc1nc(-c2ccccc2)no1.O=C(O)CC(O)(CC(=O)O)C(=O)O [Oxalamine citrate salt]
skin-fascia explants
  phenotype as inhibitor of ECM movement: anti-fibrotic phenotype

## COc1ccc2c(c1)N(C[C@H](C)CN(C)C)c1ccccc1S2.O=C(O)/C=C\C(=O)O [Methotrimeprazine maleat salt]
skin-fascia explants
  phenotype as inhibitor of ECM movement: anti-fibrotic phenotype

## CC1(C)O[C@@H]2C[C@H]3[C@@H]4C[C@H](F)C5=CC(=O)C=C[C@]5(C)[C@@]4(F)[C@@H](O)C[C@]3(C)[C@]2(C(=O)CO)O1 [Fluocinolone acetonide]
skin-fascia explants
  phenotype as inhibitor of ECM movement: anti-fibrotic phenotype

## NC(N)=Nc1nc(CSCCC(N)=NS(N)(=O)=O)cs1 [Famotidine]
skin-fascia explants
  phenotype as inhibitor of ECM movement: anti-fibrotic phenotype

## CCCOc1cc(N)ccc1C(=O)OCCN(CC)CC [Propoxycaine hydrochloride]
skin-fascia explants
  phenotype as inhibitor of ECM movement: anti-fibrotic phenotype

## CCC(=O)O[C@]1(C(=O)SCF)[C@H](C)C[C@H]2[C@@H]3C[C@H](F)C4=CC(=O)C=C[C@]4(C)[C@@]3(F)[C@@H](O)C[C@@]21C [Fluticasone propionate]
skin-fascia explants
  phenotype as inhibitor of ECM movement: anti-fibrotic phenotype

## O=CN1CC/C(=C\c2ccc3c(c2)OCO3)C1=O [KNK437]
liver; [1]
  ECM (matrix) movement, liver: decreased
peritoneum; [1]
  ECM (matrix) movement, peritoneum: decreased

## COc1cccc2c1C(=O)c1c(O)c3c(c(O)c1C2=O)C[C@@](O)(C(=O)CO)C[C@@H]3O[C@H]1C[C@H](N)[C@H](O)[C@H](C)O1 [Doxorubicin hydrochloride]
skin-fascia explants
  phenotype as inhibitor of ECM movement: anti-fibrotic phenotype

## CN1CCOC(c2ccccc2)c2ccccc2C1 (centres unmarked) [Nefopam hydrochloride]
skin-fascia explants
  phenotype as inhibitor of ECM movement: anti-fibrotic phenotype

## O=c1[nH]c2ccccc2n1CCCN1CCC(n2c(=O)[nH]c3cc(Cl)ccc32)CC1 [Domperidone]
skin-fascia explants
  phenotype as inhibitor of ECM movement: anti-fibrotic phenotype

## CC1(C)S[C@@H]2[C@H](NC(=O)Cc3ccccc3)C(=O)N2[C@H]1C(=O)O.CC1(C)S[C@@H]2[C@H](NC(=O)Cc3ccccc3)C(=O)N2[C@H]1C(=O)O.c1ccc(CNCCNCc2ccccc2)cc1 [Benzathine benzylpenicillin]
skin-fascia explants
  phenotype as inhibitor of ECM movement: anti-fibrotic phenotype

## C[C@H](N)[C@H](O)c1ccc(O)c(O)c1 [Levonordefrin]
skin-fascia explants
  phenotype as inhibitor of ECM movement: anti-fibrotic phenotype

## CC(=O)N(CC(O)CN(C(C)=O)c1c(I)c(C(=O)NCC(O)CO)c(I)c(C(=O)NCC(O)CO)c1I)c1c(I)c(C(=O)NCC(O)CO)c(I)c(C(=O)NCC(O)CO)c1I (centres unmarked) [Iodixanol, lodixanol]
skin-fascia explants
  phenotype as inhibitor of ECM movement: anti-fibrotic phenotype

## CC(C)C[C@H](NC(=O)[C@@H](O)[C@H](N)Cc1ccccc1)C(=O)O [BESTATIN]
peritoneum; [1]
  ECM (matrix) movement, peritoneum: decreased

## C[N+](C)(CCOc1ccccc1)Cc1ccccc1.O=C([O-])c1cc2ccccc2cc1O [Bephenium hydroxynaphthoate]
skin-fascia explants
  phenotype as inhibitor of ECM movement: anti-fibrotic phenotype

## CCCCC[C@H](O)/C=C/C=C\C=C\C=C\[C@@H](O)[C@@H](O)CCCC(=O)O [Lipoxin A4]
liver
  recruitment / deposition of fluid matrix after local application: led to recruitment of fluid matrix
liver; listed as Lipoxin
  recruitment / deposition of fluid matrix after local application: can be directed with local application

## O=C1c2ccc([N+](=O)[O-])cc2N=C2N(c3ccccc3)CC[C@@]12O [(S)-nitro-Blebbistatin]
peritoneum; [1]
  ECM (matrix) movement, peritoneum: decreased
peritoneum
  organ specificity of the effect on matrix currents: effected matrix currents of only one organ

## CC[C@H](C)C(=O)O[C@H]1CCC=C2C=C[C@H](C)[C@H](CC[C@@H]3C[C@@H](O)CC(=O)O3)[C@H]21 [Mevastatin]
skin-fascia explants
  phenotype as inhibitor of ECM movement: anti-fibrotic phenotype

## NC(=O)c1cnccn1 [Pyrazinamide]
skin-fascia explants
  phenotype as inhibitor of ECM movement: anti-fibrotic phenotype

## CC(C)N(CCC(C(N)=O)(c1ccccc1)c1ccccn1)C(C)C (centres unmarked) [Disopyramide]
skin-fascia explants
  phenotype as inhibitor of ECM movement: anti-fibrotic phenotype

## CCN1CCN(C(=O)N[C@@H](C(=O)N[C@@H]2C(=O)N3[C@@H]2SC(C)(C)[C@@H]3C(=O)O)c2ccccc2)C(=O)C1=O [Piperacillin sodium salt]
skin-fascia explants
  phenotype as inhibitor of ECM movement: anti-fibrotic phenotype

## C=C1/C(=C\C=C2/CCC[C@]3(C)[C@@H]([C@H](C)CCCC(C)C)CC[C@@H]23)C[C@@H](O)C[C@@H]1O [Alfacalcidol]
skin-fascia explants
  phenotype as inhibitor of ECM movement: anti-fibrotic phenotype

## C[C@@H]1C[C@H]2[C@@H]3C[C@H](F)C4=CC(=O)C=C[C@]4(C)[C@@]3(F)[C@@H](O)C[C@]2(C)[C@@]1(O)C(=O)COC(=O)C(C)(C)C [Flumethasone pivalate]
skin-fascia explants
  phenotype as inhibitor of ECM movement: anti-fibrotic phenotype

## Nc1ccc(S(=O)(=O)Nc2cnc3ccccc3n2)cc1 [Sulfaquinoxaline sodium salt]
skin-fascia explants
  phenotype as inhibitor of ECM movement: anti-fibrotic phenotype

## Clc1cc(Cl)c(OCC#CI)cc1Cl [Haloprogin]
skin-fascia explants
  phenotype as inhibitor of ECM movement: anti-fibrotic phenotype

## C[C@H]1NC(=O)NC1=O [Methylhydantoin-5-(D)]
skin-fascia explants
  phenotype as inhibitor of ECM movement: anti-fibrotic phenotype

## COc1ccc(NS(=O)(=O)c2ccc(N)cc2)nn1 [Sulfamethoxypyridazine]
skin-fascia explants
  phenotype as inhibitor of ECM movement: anti-fibrotic phenotype

## CCCCN(CCCC)CCC(O)c1cc2c(Cl)cc(Cl)cc2c2cc(C(F)(F)F)ccc12 (centres unmarked) [Halofantrine hydrochloride]
skin-fascia explants
  phenotype as inhibitor of ECM movement: anti-fibrotic phenotype

## N#CC(=C(O)c1ccc(Cl)cc1Cl)c1nc2cc(Cl)ccc2c(=O)[nH]1 [Ciliobrevin D]
peritoneum; [1]
  ECM (matrix) movement, peritoneum: decreased
peritoneum
  organ specificity of the effect on matrix currents: effected matrix currents of only one organ

## Nc1ccc(S(=O)(=O)Nc2ccnn2-c2ccccc2)cc1 [Sulfaphenazole]
skin-fascia explants
  phenotype as inhibitor of ECM movement: anti-fibrotic phenotype

## [H]/N=C(/NCCCCC)N/N=C/c1c[nH]c2ccc(OC)cc12 [Tegaserod maleate]
skin-fascia explants
  phenotype as inhibitor of ECM movement: anti-fibrotic phenotype

## CCCCC/C=C\C[C@@H](O)/C=C/C=C/C=C\[C@@H](O)CCCC(=O)O [LTB4]
liver
  recruitment / deposition of fluid matrix after local application: forms new deposits of matrix

## CCOc1cc(CC(=O)N[C@@H](CC(C)C)c2ccccc2N2CCCCC2)ccc1C(=O)O [Repaglinide]
skin-fascia explants
  phenotype as inhibitor of ECM movement: anti-fibrotic phenotype

## O=C1CC[C@@]2(O)[C@H]3Cc4ccc(O)c5c4[C@@]2(CCN3CC2CC2)[C@H]1O5 [Naltrexone hydrochloride dehydrate, Naltrexone hydrochloride dihydrate]
skin-fascia explants
  phenotype as inhibitor of ECM movement: anti-fibrotic phenotype

## CN1CCCC(n2nc(Cc3ccc(Cl)cc3)c3ccccc3c2=O)CC1 (centres unmarked) [Azelastine HCl]
skin-fascia explants
  phenotype as inhibitor of ECM movement: anti-fibrotic phenotype

## C#C[C@]1(O)CC[C@H]2[C@@H]3CCC4=C(CCC(=O)C4)[C@H]3CC[C@@]21C [Norethynodrel]
skin-fascia explants
  phenotype as inhibitor of ECM movement: anti-fibrotic phenotype

## CC(C)/N=c1\cc2n(-c3ccc(Cl)cc3)c3ccccc3nc-2cc1Nc1ccc(Cl)cc1 [Clofazimine]
skin-fascia explants
  phenotype as inhibitor of ECM movement: anti-fibrotic phenotype

## CCC(C)(C)c1ccc(CC(C)CN2C[C@@H](C)O[C@@H](C)C2)cc1 (some centres unmarked) [Amorolfine hydrochloride]
skin-fascia explants
  phenotype as inhibitor of ECM movement: anti-fibrotic phenotype

## CC[C@]12CCCN3CCc4c(n(c5ccccc45)C(=O)C1)[C@@H]32 [Eburnamonine (−)]
skin-fascia explants
  phenotype as inhibitor of ECM movement: anti-fibrotic phenotype

## CC(C)(C)C(=O)OCOC(=O)[C@@H]1N2C(=O)[C@@H](NC(=O)[C@H](N)c3ccccc3)[C@H]2SC1(C)C [Pivampicillin]
skin-fascia explants
  phenotype as inhibitor of ECM movement: anti-fibrotic phenotype

## CCN1CC(CCN2CCOCC2)C(c2ccccc2)(c2ccccc2)C1=O (centres unmarked) [Doxapram hydrochloride]
skin-fascia explants
  phenotype as inhibitor of ECM movement: anti-fibrotic phenotype
